Results reported in patent publication US20230141533A1, “LACTONE COMPOUND” (FUJIFILM Corporation, priority 2021, published 2023).
Several values for one entry are separate records, joined by “and”; a condition that tells them apart may be missing. Equal entries are not always repeated.

Experiments:
[1] = Water stability over time without applied voltage (HPLC residual rate); format: physicochemical; conditions: for Residual rate (%): aqueous mixed solution with NIKKOL HCO-40, allowed to stand at 25° C. for 24 hours, HPLC area after 24 hours ÷ area immediately after preparation × 100; for water stability over time (in words): without applied voltage, 25° C., 24 hours, judged from residual rate
Method: Water Stability Over Time without Applied Voltage
To 1.0 part by mass of each of the compounds (1) to (9) synthesized in Examples and Comparative Examples, 1000 parts by mass of NIKKOL HCO-40 (Nikko Chemicals Co., Ltd.) and 10000 parts by mass of acetone were mixed.
Next, after removing the acetone using an evaporator at a temperature of 40° C., 10000 parts of water was added thereto to prepare a uniform mixed solution 1. The mixed solution 1 was allowed to stand at 25° C. for 24 hours.
Immediately after the preparation of the mixed solution 1 and after allowing the mixed solution 1 to stand for 24 hours, an HPLC measurement was carried out under the following analysis conditions, and a residual rate in the water stability test over time was calculated using the following expression.
(Area value after standing for 24 hours)÷(Area value immediately after preparation)×100=Residual rate (%)
SCL-10AVP manufactured by Shimadzu Corporation
Eluent: single eluent prepared by adding 0.2% by volume of each of acetic acid and triethylamine to a mixed solution obtained by mixing tetrahydrofuran (THF) and water at a ratio of 60:40

[2] = Water stability under applied voltage (square wave voltammetry, oxidation potential); format: physicochemical; conditions: for Oxidation potential: SWV, 0.5 mM in THF:water=90:10, gold electrode, Ag wire reference, ferrocene reference substance, None = no oxidation potential, more stable than 1.3 V (THF oxidized); for water stability under applied voltage (in words): judged from whether an oxidation potential is observed
Method: Water Stability Under Applied Voltage
Water stability against voltage of each of the compounds (1) to (9) synthesized in Examples and Comparative Examples was evaluated by the measurement shown below.
Measurement: square wave voltammetry (SWV)
Action electrode: gold electrode
Counter electrode: platinum black electrode
Reference electrode: Ag wire
Supporting electrolyte: tetrabutylammonium hexafluorophosphate (manufactured by FUJIFILM Wako Pure Chemical Corporation)
Reference substance: ferrocene
The compound (1) was adjusted to a concentration of 0.5 mM using a mixed solvent of THF:water=90:10, and nitrogen bubbling was carried out for 10 minutes to produce a measurement sample.
Next, a measurement was performed under the above-described analysis conditions to observe an oxidation potential.
Oxidation potentials of the compounds (2) to (9) were measured under the same conditions.

Row | Structure (SMILES) | Residual rate (%) [1] | Oxidation potential [2] | water stability over time (in words) [1] | water stability under applied voltage (in words) [2]
1 | Cc1cc(C)c(C2C(=O)Oc3c2cc(C(C)(C)C)cc3C(C)(C)C)c(C)c1 (stereo not drawn) [Compound (1)] | 100% | None |  | 
2 | COc1cc(OC)c(C2C(=O)Oc3c2cc(C(C)(C)C)cc3C(C)(C)C)c(OC)c1 (stereo not drawn) [Compound (2)] | 95% | None |  | 
3 | Cc1cc(C)c(C2C(=O)Oc3c2cc(C)cc3C(C)(C)C)c(C)c1 (stereo not drawn) [Compound (3)] | 90% | None |  | 
4 | COc1cc(OC)c(C2C(=O)Oc3c2cc(C)cc3C(C)(C)C)c(OC)c1 (stereo not drawn) [Compound (4)] | 95% | None |  | 

Continued, values first:

Row | Residual rate (%) [1] | Oxidation potential [2] | water stability over time (in words) [1] | water stability under applied voltage (in words) [2] | Structure (SMILES)
5 | 0% | None | deteriorated |  | Cc1ccc(C2C(=O)Oc3c2cc(C(C)(C)C)cc3C(C)(C)C)cc1C (stereo not drawn) [Compound (5)]
6 | 10% | None | still deteriorated |  | Cc1c(C)c(C)c(C2C(=O)Oc3c2cc(C(C)(C)C)cc3C(C)(C)C)c(C)c1C (stereo not drawn) [Compound (6)]
7 | 0% | None | deteriorated |  | CCCCCCCCOc1ccc(C2C(=O)Oc3c2cc(C(C)(C)C)cc3C(C)(C)C)cc1 (stereo not drawn) [Compound (7)]
8 | 0% | 0.65 V and 1.00 V and 1.15 V |  | low | Cc1c(C(C)(C)C)cc(C(C)(C)C)c(O)c1C1C(=O)Oc2c1cc(C(C)(C)C)cc2C(C)(C)C (stereo not drawn) [Compound (8)]
9 |  |  |  | low | CC(C)(C)c1cc(C2C(=O)Oc3c2cc(C(C)(C)C)cc3C(C)(C)C)c(O)c(C(C)(C)C)c1 (stereo not drawn) [Compound (9)]
